Measured values as given in the pKa sets of Baltruschat and Czodrowski (2020).

Conditions: acidic group

Compound	pKa
O=C1C=CC(=O)/C(=N/O)N1	8.4
Cc1ccc(CCC(=O)O)cc1	4.74
N#C/C(=C\C(=O)O)c1ccccc1	3.07
Cc1cccc(C(=O)O)c1Cl	3
Oc1[nH+]ccc2cccnc12	2.64
CC1(C)N=C(C(=O)CC(=O)C(F)(F)F)C(C)(C)N1O	4.66
CC(C)C(O)C(C(=O)O)c1ccc(-c2ccccc2)cc1 (configuration not stated)	4.13
Oc1nc2cc3c(cc2[nH]1)CCCC3	12.2
CCCc1nnn[nH]1	5.61
O/N=C\c1ccccc1	11.3
Cn1nc(Cl)nc1NN=O	4.03
Cc1cccc(OCC(=O)O)c1	3.18
CCOC(=O)C1CCCCC1=O (configuration not stated)	11.9
NC(Cc1c[nH]c(=S)[nH]1)C(=O)[O-] (configuration not stated)	11.4
[NH3+]CCCC#CC#CCCC(=O)O	4.12
CC[NH+]1CCC[C@@H]1CNC(=O)c1c(OC)ccc([N+](=O)[O-])c1O	5.75
O=C(O)c1ccc(Oc2ccccc2)cc1	4.52
O=S1(=O)N=CNc2ncccc21	7.03
O=C([O-])CN(CC(=O)O)Cc1cc(Cl)cc(C[NH+](CC(=O)[O-])CC(=O)O)c1O	2.2
[NH3+]CC(=O)NCC(=O)NCC(=O)N1CCC[C@H]1C(=O)O	2.91
CCc1c(-c2ccccc2)n[nH]c1O	7.8
CCCCSC(=N)c1ccccc1	8.21
c1ccc(-c2nc3cnccc3[nH]2)cc1	10.3
NC(=O)[C@H](CCC(=O)O)NC=O	4.3
O=c1[nH]cc(SSc2c[nH]c(=O)[nH]c2=O)c(=O)[nH]1	8
Cn1cnc2c1NC=NS2(=O)=O	4.45
Cc1nccc2c1[nH]c1cc(O)ccc12	9.47

Compound	pKa
SCc1ncc[nH]1	9.26
CC([SeH])C[NH3+] (configuration not stated)	5.19
Cc1nn(-c2ccccc2)cc1C(=O)O	4.58
CC(=O)/N=c1\sc(S(N)(=O)=O)nn1C	7.3
CC1=NCCc2c1[nH]c1ccc([N+](=O)[O-])cc21	12.6
O=[N+]([O-])c1ccc(S)c([N+](=O)[O-])c1	3.4
Oc1cccc2c1CCCC2	10.5
COc1cnc[nH+]c1O	1.75
O=C(O)c1cccs1	3.46
C/C=C(\C(=O)O)c1ccc([N+](=O)[O-])cc1	5
CCOC(=O)c1ccc(O)c([N+](=O)[O-])c1	5.44
Nc1nc2c(ncn2[C@H]2O[C@@H](CO)[C@H](O)[C@@H]2O)c(O)[nH+]1	1.9
O/N=C(/Cl)c1ccccc1	9.8
C=C[C@]1(O)C[NH+]2CC[C@H]1C[C@H]2[C@H](O)c1cc(O)[nH+]c2ccccc12	2.76
Nc1c[nH]nc1[N+](=O)[O-]	9.5
c1cc(-c2nn[nH]n2)cc(-c2nnn[nH]2)c1	3.38
Cc1ncc(CO)c(CO)c1O	8.98
Cc1ccc([N+](=O)[O-])c(C(=O)O)c1	2.55
CC1NCCc2c1[nH]c1ccc([N+](=O)[O-])cc21 (configuration not stated)	14.1
O=C(NCO)c1ccccc1	13.1
Oc1c2ccccc2[nH+]c2ccccc12	0.32
CC(O)C(C(=O)O)c1ccc(-c2ccccc2)cc1 (configuration not stated)	4.3
Cc1[nH]ccc1C(=O)O	5.8
N#Cc1ccc(C(=O)S)cc1	1.42
C#CCC(=O)O	3.31
O=C1CCc2cc(Cl)c([N+](=O)[O-])cc2C1	11.3
N#CC(Br)C#N	5

Same assay, conditions: basic group

Compound	pKa
CC(C)NCCN	10.6
Nc1cc(/C=C/c2ccccc2)nc2ccccc12	9.3
CN1CCCN(C)c2cccc3cccc1c23	10.3
c1ccc(-c2cc3cccnc3c3ncccc23)cc1	4.72
NCc1ccc([N+](=O)[O-])cc1	8.5
c1ccc(N=P(c2ccccc2)(c2ccccc2)c2ccccc2)cc1	-0.92
CCN(CC)CCCNc1c2ccccc2[nH+]c2ccccc12	8.53
N[C@H]1C[C@@H]1[NH3+]	5.9
N[C@@H](Cc1ccccc1)C(=O)[O-]	9.14
NC(Cc1c[nH]c(=S)[nH]1)C(=O)[O-] (configuration not stated)	8.47
CNCc1ccccc1	9.64
CCCN(C)N	7.35
O=C([O-])c1cc(-c2ccccc2)nnc1NCCN1CCOCC1	7.07
Nc1ccnc2cc(Cl)ccc12	8.22
CCN(CC)CC#N	4.18
Cc1ccc(S(=O)C(C)(C)C)cc1 (configuration not stated)	-2.2
COc1ccc(CCN)cc1	9.79
C[C@H]([NH3+])C(=O)N[C@@H](Cc1c[nH]cn1)C(=O)[O-]	6.76
Cc1ccc(N(C)CO)cc1	3.73
CCCCCCCNc1ccccc1	5.09
c1ccc(-c2ccc3nc(CN4CCOCC4)cn3n2)cc1	6.25
N=C(c1ccccc1)c1ccccc1O	5
Cn1cncn1	2.31

Compound	pKa
C=C(C)C(=O)OCCNCC	9.15
c1ccc(-c2nc3cnccc3[nH]2)cc1	6
COc1cccc(C(=O)N[C@H]2C[C@H]3CC[C@@H](C2)N3Cc2ccccc2)c1OC	8.91
OCCN1CCOCC1	7.18
c1c[nH]c(Cc2nc(Cc3c[nH]cn3)c[nH]2)n1	7.26
Cc1nccc2c1[nH]c1cc(O)ccc12	7.39
CCc1ccnc2c1ccc1cccnc12	5.44
SCc1ncc[nH]1	6.37
NC1(C(=O)[O-])CCCCC1	10
CNNC1CCN(C)CC1	8.7
CCN(CC)CCCC(C)Nc1ccnc2cc(Br)ccc12 (configuration not stated)	10.2
C=CC1CN2CCC1C[C@H]2C(=O)[O-] (some centres not stated)	10.6
Nc1ccc2[nH]ncc2c1	5.15
C(=N\c1ccccc1)/Nc1ccccc1	6.3
Cc1ccccc1/C(=N/CCC[NH+](C)C)c1ccc2ccccc2c1	4.54
CC1=NCCc2c1[nH]c1ccc([N+](=O)[O-])cc21	6.37
CC(CN1CCCCC1)C(C#N)(c1ccccc1)c1ccccc1 (configuration not stated)	7.54
N#Cc1cccnc1	1.48
N[C@H]1C[C@H]2CCCC[C@@H]2C[C@@H]1[NH3+]	6.68
Clc1ccccn1	0.72
CN(C)c1ccc2c(c1)Sc1cc([NH+](C)C)ccc1N2	5.27
Cc1nc2ccccc2n1C	6.55
Cc1ccnc([S-])n1	8

Compound	pKa
CCCSS/C(CCO)=C(/C)N(C=O)Cc1cnc(C)nc1N	5.52
Cn1c[nH+]c2cccc(N)c21	2.36
CC(C)N/C=N/c1ccc(-c2cn(C)cn2)cc1	8.99
CCCCCCCCCCCCCCCCCc1c2ccccc2nc2ccccc12	5.5
CN(C)CCCCCCCNC(=O)/C=N/[O-]	10.5
[O-]c1ncccn1	9.17
O=C([O-])CC(c1ncc[nH]1)c1ncc[nH]1	6.9
NCC(=O)NN	7.69
CCN(CC)CCNc1cc(C)nc(Nc2ccc(Cl)cc2)n1	9.05
CCCCNc1ccnc2cccc([N+](=O)[O-])c12	7.18
NCC(N)CN	9.59
NCCc1c[nH]c2ccccc12	10.2
Cc1ncc(CO)c(CO)c1O	4.96
CO[C@H]1CC=C2CCN3CC[C@H](CO)/C(=C\CO)[C@]23C1	8.42
CNCC(=O)NC	8.28
CC(C)N/C=[NH+]/c1ccc(-c2cn(C)cn2)cc1	5.39
O=C([O-])/C=C/c1c[nH]cn1	5.85
COCCNc1ccc(C)cc1	4.64
C=CC(C)(C)NC(C)(C)C=C	10.1
CN(C)/C=N/c1ccccc1Br	6.71
COC(=O)c1c2ccccc2nc2ccccc12	3.45
Cn1ccc(=NC(=O)c2ccccc2)cc1	9.89
